Reference: publication PMC5218480 (PLoS ONE, 2017)

System: MV-4-11 cells
Test: Gene expression microarray analysis (Affymetrix PrimeView) and GSEA
Format: cell-based, human
Set-up: RFU PODN (11730768_x_at) / Fold change /veh PODN (11730768_x_at) / RFU LINC00158 (11744669_a_at) / Fold change /veh LINC00158 (11744669_a_at) / RFU DUSP10 (11751237_a_at) / Fold change /veh DUSP10 (11751237_a_at) / RFU ID3 (11757404_x_at) / Fold change /veh ID3 (11757404_x_at) / RFU PLEKHG5 (11737974_s_at) / Fold change /veh PLEKHG5 (11737974_s_at) / RFU LRRC4B (11730491_at) / Fold change /veh LRRC4B (11730491_at) / RFU GIMAP4 (11747438_a_at) / Fold change /veh GIMAP4 (11747438_a_at) / RFU KRT8 (11758183_x_at) / Fold change /veh KRT8 (11758183_x_at) / RFU CNN1 (11734310_a_at) / Fold change /veh CNN1 (11734310_a_at) / RFU VPS37D (11726825_at) / Fold change /veh VPS37D (11726825_at) / RFU C10orf10 (11716522_x_at) / Fold change /veh C10orf10 (11716522_x_at) / RFU KIR2DL2 /// KIR2DL4 /// KIR2DL5A /// KIR2DL5B /// KIR2DS1 /// KIR2DS2 /// KIR2DS3 /// KIR2DS4 /// KIR3DL3 /// KIR3DL3 /// KIR3DS1 (11738374_at) / Fold change /veh KIR2DL2 /// KIR2DL4 /// KIR2DL5A /// KIR2DL5B /// KIR2DS1 /// KIR2DS2 /// KIR2DS3 /// KIR2DS4 /// KIR3DL3 /// KIR3DL3 /// KIR3DS1 (11738374_at) / RFU C1QL1 (11718748_at) / Fold change /veh C1QL1 (11718748_at) / RFU TMPRSS4 (11747572_a_at) / Fold change /veh TMPRSS4 (11747572_a_at) / RFU HAMP (11756126_x_at) / Fold change /veh HAMP (11756126_x_at) / RFU RNFT2 (11725882_a_at) / Fold change /veh RNFT2 (11725882_a_at) / RFU NR4A2 (11747474_a_at) / Fold change /veh NR4A2 (11747474_a_at) / RFU ABCC12 (11746883_a_at) / Fold change /veh ABCC12 (11746883_a_at) / RFU TMEM136 (11760407_x_at) / Fold change /veh TMEM136 (11760407_x_at) / RFU CLDN22 /// WWC2 (11732394_at) / Fold change /veh CLDN22 /// WWC2 (11732394_at) / RFU HLA-DPB1 (11760878_x_at) / Fold change /veh HLA-DPB1 (11760878_x_at) / RFU SPINT1 (11716480_a_at) / Fold change /veh SPINT1 (11716480_a_at) / RFU GAP43 (11754022_s_at) / Fold change /veh GAP43 (11754022_s_at) / RFU A4GNT (11735810_at) / Fold change /veh A4GNT (11735810_at) / RFU PRB3 (11715151_x_at) / Fold change /veh PRB3 (11715151_x_at) / RFU TUBB4B (11761932_at) / Fold change /veh TUBB4B (11761932_at) / RFU CAPN14 (11732068_a_at) / Fold change /veh CAPN14 (11732068_a_at) / RFU TMCC2 (11721928_a_at) / Fold change /veh TMCC2 (11721928_a_at) / RFU IRGQ (11745062_a_at) / Fold change /veh IRGQ (11745062_a_at) / RFU FAM174B (11720279_a_at) / Fold change /veh FAM174B (11720279_a_at) / RFU TMPRSS4 (11748680_a_at) / Fold change /veh TMPRSS4 (11748680_a_at) / RFU FAM212B (11763350_a_at) / Fold change /veh FAM212B (11763350_a_at) / RFU PLEKHG5 (11743358_a_at) / Fold change /veh PLEKHG5 (11743358_a_at) / RFU ZSCAN30 (11745921_a_at) / Fold change /veh ZSCAN30 (11745921_a_at) / RFU CMKLR1 (11741424_a_at) / Fold change /veh CMKLR1 (11741424_a_at) / RFU LOC101060620 /// MAPK8IP1 (11723275_at) / Fold change /veh LOC101060620 /// MAPK8IP1 (11723275_at) / RFU SPTSSB (11747773_x_at) / Fold change /veh SPTSSB (11747773_x_at) / RFU PRSS12 (11739890_at) / Fold change /veh PRSS12 (11739890_at) / RFU BIN1 (11741810_x_at) / Fold change /veh BIN1 (11741810_x_at) / RFU WNT11 (11732464_a_at) / Fold change /veh WNT11 (11732464_a_at) / RFU C10orf10 (11716521_a_at) / Fold change /veh C10orf10 (11716521_a_at) / RFU C5orf56 (11738089_at) / Fold change /veh C5orf56 (11738089_at) / RFU CYB561 (11721691_x_at) / Fold change /veh CYB561 (11721691_x_at) / RFU ANKRD19P (11752326_a_at) / Fold change /veh ANKRD19P (11752326_a_at) / RFU OR2T12 /// OR2T33 /// OR2T8 (11738714_s_at) / Fold change /veh OR2T12 /// OR2T33 /// OR2T8 (11738714_s_at) / RFU VCAN (11748164_a_at) / Fold change /veh VCAN (11748164_a_at) / RFU JSRP1 (11732532_at) / Fold change /veh JSRP1 (11732532_at) / RFU KRTAP10-11 (11738290_x_at) / Fold change /veh KRTAP10-11 (11738290_x_at) / RFU MYO3A (11730013_a_at) / Fold change /veh MYO3A (11730013_a_at) / RFU EBF3 (11725865_a_at) / Fold change /veh EBF3 (11725865_a_at) / RFU CAMK2N1 (11719241_x_at) / Fold change /veh CAMK2N1 (11719241_x_at) / RFU C5orf56 (11738088_a_at) / Fold change /veh C5orf56 (11738088_a_at) / RFU OLFML3 (11715873_a_at) / Fold change /veh OLFML3 (11715873_a_at) / RFU LOC100653217 /// NTM (11731650_a_at) / Fold change /veh LOC100653217 /// NTM (11731650_a_at) / RFU MAPK11 (11762145_a_at) / Fold change /veh MAPK11 (11762145_a_at) / RFU FIZ1 (11724087_x_at) / Fold change /veh FIZ1 (11724087_x_at) / RFU OASL (11726364_x_at) / Fold change /veh OASL (11726364_x_at) / RFU SOX15 (11748057_x_at) / Fold change /veh SOX15 (11748057_x_at) / RFU CD79A (11719716_a_at) / Fold change /veh CD79A (11719716_a_at) / RFU HIST1H1D (11736915_at) / Fold change /veh HIST1H1D (11736915_at) / RFU CASKIN2 (11723855_a_at) / Fold change /veh CASKIN2 (11723855_a_at) / RFU LOC730098 (11760151_x_at) / Fold change /veh LOC730098 (11760151_x_at) / RFU OR4N2 (11742367_at) / Fold change /veh OR4N2 (11742367_at) / RFU PRRT2 (11749266_a_at) / Fold change /veh PRRT2 (11749266_a_at) / RFU SNX32 (11753110_a_at) / Fold change /veh SNX32 (11753110_a_at) / RFU CDHR5 (11726645_a_at) / Fold change /veh CDHR5 (11726645_a_at) / RFU RCAN1 (11760418_a_at) / Fold change /veh RCAN1 (11760418_a_at) / RFU FAM167A (11723789_a_at) / Fold change /veh FAM167A (11723789_a_at) / RFU FAM26E (11764081_at) / Fold change /veh FAM26E (11764081_at) / RFU ISYNA1 (11749810_s_at) / Fold change /veh ISYNA1 (11749810_s_at) / RFU ACY1 (11761880_at) / Fold change /veh ACY1 (11761880_at) / RFU 11764098_at / Fold change /veh 11764098_at / RFU SAMD14 (11745864_x_at) / Fold change /veh SAMD14 (11745864_x_at) / RFU NPB (11741838_a_at) / Fold change /veh NPB (11741838_a_at) / RFU TMPRSS6 (11731388_a_at) / Fold change /veh TMPRSS6 (11731388_a_at) / RFU KRTAP10-2 (11738614_at) / Fold change /veh KRTAP10-2 (11738614_at) / RFU ARHGAP8 /// PRR5-ARHGAP8 (11727945_x_at) / Fold change /veh ARHGAP8 /// PRR5-ARHGAP8 (11727945_x_at) / RFU KRTAP5-7 /// NADSYN1 (11734609_at) / Fold change /veh KRTAP5-7 /// NADSYN1 (11734609_at) / RFU RASL12 (11751679_a_at) / Fold change /veh RASL12 (11751679_a_at) / RFU CDKN2B (11736163_a_at) / Fold change /veh CDKN2B (11736163_a_at) / RFU PRF1 (11729649_at) / Fold change /veh PRF1 (11729649_at) / RFU, ZNF638 /// ZNF638-IT1 / Fold change vs veh, ZNF638 /// ZNF638-IT1 / RFU, PANK3 / Fold change vs veh, PANK3 / RFU, SH3YL1 / Fold change vs veh, SH3YL1 / RFU, ZEB2 / Fold change vs veh, ZEB2 / RFU, NRIP1 / Fold change vs veh, NRIP1 / RFU, PTTG1IP / Fold change vs veh, PTTG1IP / RFU, CAPN2 / Fold change vs veh, CAPN2 / RFU, MED14 / Fold change vs veh, MED14 / RFU, SNORA58 / Fold change vs veh, SNORA58 / RFU, C1orf63 / Fold change vs veh, C1orf63 / RFU, LRRFIP1 / Fold change vs veh, LRRFIP1 / RFU, NDUFAF7 / Fold change vs veh, NDUFAF7 / RFU, SLC12A2 / Fold change vs veh, SLC12A2 / RFU, IBTK / Fold change vs veh, IBTK / RFU, ESF1 / Fold change vs veh, ESF1 / Fold change vs veh, TMEM50B / RFU, TAOK1 / Fold change vs veh, TAOK1 / RFU, ACBD3 / Fold change vs veh, ACBD3 / RFU, TMA16 / Fold change vs veh, TMA16 / RFU, RWDD3 / Fold change vs veh, RWDD3 / RFU, BCAT1 / Fold change vs veh, BCAT1 / RFU, EDEM3 / Fold change vs veh, EDEM3 / RFU, TMEM33 / Fold change vs veh, TMEM33 / RFU, WDR75 / Fold change vs veh, WDR75 / RFU, AHCTF1 / Fold change vs veh, AHCTF1 / RFU, TFRC / Fold change vs veh, TFRC / RFU, ZDHHC17 / Fold change vs veh, ZDHHC17 / RFU, NOM1 / Fold change vs veh, NOM1 / RFU, ARL8B / Fold change vs veh, ARL8B / RFU, ZBTB11 / Fold change vs veh, ZBTB11 / RFU, TAMM41 / Fold change vs veh, TAMM41 / RFU, KIAA1704 /// LOC100996395 / Fold change vs veh, KIAA1704 /// LOC100996395 / RFU, ING1 / Fold change vs veh, ING1 / RFU, TRMT61B / Fold change vs veh, TRMT61B / RFU, FUBP3 / Fold change vs veh, FUBP3 / RFU, TP53 / Fold change vs veh, TP53 / RFU, TNKS2 / Fold change vs veh, TNKS2 / RFU, ZFP14 / Fold change vs veh, ZFP14 / RFU, ACTR2 / Fold change vs veh, ACTR2 / RFU, PPP3R1 / Fold change vs veh, PPP3R1 / RFU, PIK3R1 / Fold change vs veh, PIK3R1 / RFU, HNRNPA1 / Fold change vs veh, HNRNPA1 / RFU, RNF170 / Fold change vs veh, RNF170 / RFU, ZNF28 / Fold change vs veh, ZNF28 / RFU, RNGTT / Fold change vs veh, RNGTT / RFU, OGT / Fold change vs veh, OGT / RFU, BRD1 / Fold change vs veh, BRD1 / RFU, MARS / Fold change vs veh, MARS / RFU, ZNF655 / Fold change vs veh, ZNF655 / RFU, FAHD1 / Fold change vs veh, FAHD1 / RFU, BDP1 / Fold change vs veh, BDP1 / RFU, LRRCC1 / Fold change vs veh, LRRCC1 / RFU, ARID1A / Fold change vs veh, ARID1A / RFU, ZNF146 / Fold change vs veh, ZNF146 / RFU, ZNF330 / Fold change vs veh, ZNF330 / RFU, GPN3 / Fold change vs veh, GPN3 / RFU, C9orf123 / Fold change vs veh, C9orf123 / RFU, N4BP2L2 / Fold change vs veh, N4BP2L2 / RFU, ARFIP1 / Fold change vs veh, ARFIP1 / RFU, FAM179B / Fold change vs veh, FAM179B / RFU, BCL10 / Fold change vs veh, BCL10 / RFU, UHRF1BP1L / Fold change vs veh, UHRF1BP1L / RFU, BET1 / Fold change vs veh, BET1 / RFU, CNOT2 / Fold change vs veh, CNOT2 / RFU, ZNF268 / Fold change vs veh, ZNF268 / Fold change vs veh, ZNF507 / RFU, DGCR2 / Fold change vs veh, DGCR2 / RFU, WDSUB1 / Fold change vs veh, WDSUB1 / Fold change vs veh, HSP90B1 /// MIR3652 / RFU, ADSS / Fold change vs veh, ADSS / RFU, GK / Fold change vs veh, GK / RFU, ZNF148 / Fold change vs veh, ZNF148 / RFU, TAF9 / Fold change vs veh, TAF9 / RFU, SLC1A5 / Fold change vs veh, SLC1A5 / RFU, SLMO2 / Fold change vs veh, SLMO2 / RFU, ABCC4 / Fold change vs veh, ABCC4 / RFU, LOC101060439 /// RAP1B / Fold change vs veh, LOC101060439 /// RAP1B / RFU, RFX7 / Fold change vs veh, RFX7 / RFU, GTPBP10 / Fold change vs veh, GTPBP10 / RFU, CNEP1R1 / Fold change vs veh, CNEP1R1 / RFU, BIVM-ERCC5 /// ERCC5 / Fold change vs veh, BIVM-ERCC5 /// ERCC5 / RFU, ILF3 / Fold change vs veh, ILF3 / RFU 11762660_at / Fold change /veh 11762660_at / RFU VCAN (11757783_s_at) / Fold change /veh VCAN (11757783_s_at) / RFU DDX43 (11728927_at) / Fold change /veh DDX43 (11728927_at) / RFU KRT8 (11758188_x_at) / Fold change /veh KRT8 (11758188_x_at) / RFU NKD1 (11759106_at) / Fold change /veh NKD1 (11759106_at) / RFU SRD5A1 (11742802_a_at) / Fold change /veh SRD5A1 (11742802_a_at) / RFU TPSAB1 /// TPSB2 (11721975_s_at) / Fold change /veh TPSAB1 /// TPSB2 (11721975_s_at) / RFU GSTM3 (11746129_a_at) / Fold change /veh GSTM3 (11746129_a_at) / RFU IL23R (11737362_x_at) / Fold change /veh IL23R (11737362_x_at) / RFU TMEM51 (11727254_a_at) / Fold change /veh TMEM51 (11727254_a_at) / RFU PIWIL2 (11732686_x_at) / Fold change /veh PIWIL2 (11732686_x_at) / RFU ORM1 (11744905_x_at) / Fold change /veh ORM1 (11744905_x_at) / RFU CCDC152 (11743942_at) / Fold change /veh CCDC152 (11743942_at) / RFU ECM1 (11717891_a_at) / Fold change /veh ECM1 (11717891_a_at) / RFU IL23R (11748794_a_at) / Fold change /veh IL23R (11748794_a_at) / RFU TNFAIP8L3 (11732012_x_at) / Fold change /veh TNFAIP8L3 (11732012_x_at) / RFU MBOAT4 (11741988_at) / Fold change /veh MBOAT4 (11741988_at) / RFU 11764193_at / Fold change /veh 11764193_at / RFU TMEM53 (11763286_at) / Fold change /veh TMEM53 (11763286_at) / RFU MAGEB2 (11727129_at) / Fold change /veh MAGEB2 (11727129_at) / RFU TMEM200A (11744735_a_at) / Fold change /veh TMEM200A (11744735_a_at) / RFU CCDC152 (11751479_a_at) / Fold change /veh CCDC152 (11751479_a_at) / RFU FAM211A (11726209_a_at) / Fold change /veh FAM211A (11726209_a_at) / RFU RGS16 (11746705_a_at) / Fold change /veh RGS16 (11746705_a_at) / RFU VCAN (11755009_s_at) / Fold change /veh VCAN (11755009_s_at) / RFU RHOB (11743442_s_at) / Fold change /veh RHOB (11743442_s_at) / RFU RGS16 (11720943_a_at) / Fold change /veh RGS16 (11720943_a_at) / RFU RGS16 (11720944_at) / Fold change /veh RGS16 (11720944_at) / RFU, VPS4B / Fold change vs veh, VPS4B / RFU, CREB1 / Fold change vs veh, CREB1 / RFU, DNAJC13 / Fold change vs veh, DNAJC13 / RFU, GNAQ / Fold change vs veh, GNAQ / RFU, CDK5R1 / Fold change vs veh, CDK5R1 / RFU, ZRANB3 / Fold change vs veh, ZRANB3 / RFU, CUL4A / Fold change vs veh, CUL4A / RFU, CCNY / Fold change vs veh, CCNY / RFU, UFL1 / Fold change vs veh, UFL1 / RFU, COG3 / Fold change vs veh, COG3 / RFU, DIAPH2 / Fold change vs veh, DIAPH2 / RFU, SKA2 / Fold change vs veh, SKA2 / RFU, AFF3 / Fold change vs veh, AFF3 / RFU, LMF1 / Fold change vs veh, LMF1 / RFU, IPO11 / Fold change vs veh, IPO11 / RFU, DFFB / Fold change vs veh, DFFB / RFU, FOXP1 / Fold change vs veh, FOXP1 / RFU, CARD8 / Fold change vs veh, CARD8 / RFU, STRN3 / Fold change vs veh, STRN3 / RFU, ADK / Fold change vs veh, ADK / RFU, RASSF2 / Fold change vs veh, RASSF2 / RFU, WIPF1 / Fold change vs veh, WIPF1 / RFU, LARP1B / Fold change vs veh, LARP1B / RFU, RASA1 / Fold change vs veh, RASA1 / RFU, RB1 / Fold change vs veh, RB1 / RFU, PPFIA1 / Fold change vs veh, PPFIA1 / RFU, MAT2A / Fold change vs veh, MAT2A / RFU, CCT5 / Fold change vs veh, CCT5 / RFU, WDR92 / Fold change vs veh, WDR92 / RFU, CUX1 / Fold change vs veh, CUX1 / RFU, TTC7A / Fold change vs veh, TTC7A / RFU, TMEM135 / Fold change vs veh, TMEM135 / RFU, DEPTOR / Fold change vs veh, DEPTOR / RFU, CPM / Fold change vs veh, CPM / RFU, DNAJB6 / Fold change vs veh, DNAJB6 / RFU, CACNA2D3 / Fold change vs veh, CACNA2D3 / RFU, DTX4 / Fold change vs veh, DTX4 / RFU, TFCP2 / Fold change vs veh, TFCP2 / RFU, GMCL1 /// GMCL1P1 / Fold change vs veh, GMCL1 /// GMCL1P1 / RFU, AEBP2 / Fold change vs veh, AEBP2 / RFU, SNHG1 /// SNORD22 /// SNORD25 /// SNORD26 /// SNORD27 /// SNORD28 /// SNORD29 /// SNORD31 / Fold change vs veh, SNHG1 /// SNORD22 /// SNORD25 /// SNORD26 /// SNORD27 /// SNORD28 /// SNORD29 /// SNORD31 / Fold change (Aza/veh), C12orf56 (ProbeSet 11735607_a_at) / Fold change (ACY-1035/veh), C12orf56 (ProbeSet 11735607_a_at) / Fold change (Aza/veh), FGFR1OP (ProbeSet 11751329_s_at) / Fold change (ACY-1035/veh), FGFR1OP (ProbeSet 11751329_s_at) / Fold change (Aza/veh), VPS36 (ProbeSet 11739960_a_at) / Fold change (ACY-1035/veh), VPS36 (ProbeSet 11739960_a_at) / RFU SYPL1 (11715823_x_at) / Fold change /veh SYPL1 (11715823_x_at) / RFU IGFBP7 (11715501_s_at) / Fold change /veh IGFBP7 (11715501_s_at) / RFU REEP3 (11722064_at) / Fold change /veh REEP3 (11722064_at) / RFU IGLL1 (11728026_x_at) / Fold change /veh IGLL1 (11728026_x_at): dose or concentration left out as unconfirmed
Details: MV-4-11 cells, 48 hours

Nc1ccc(-c2cccs2)cc1NC(=O)c1ccc2c(c1)cc(C1CC1)n2CCN1CCOCC1 [ACY-1035]
RFU IGLL1 (11728026_x_at): 5.54 RFU
